Patent US20220248673A1, “FUNGICIDAL COMBINATIONS, MIXTURES AND COMPOSITIONS AND USES THEREOF” (priority 2019, published 2022)

Assays:
[1] = tested on: Z. tritici strain Mg Tri-R6; assay: Efficacy on first-leaf fragments of treated wheat plantlets cv. Alixan inoculated with Z. tritici, AUDPC-based (Examples 1-3); assay type: in vivo, Zymoseptoria tritici; conditions: from AUDPC (21 and 28 dpi), percent of untreated control
Method: Winter wheat plants cv. Alixan (Limagrain) at the BBCH 12 growth stage are treated with a mixture of the compound of Formula I and a fungicide selected from the group consisting of fluindapyr, pydiflumetofen, mefentrifluconazole, fenpicoxamid, inpyrfluxam and isofetamid.
The compound of Formula I and the fungicide (A) are applied at different rates and at different weight ratio with a hand sprayer at 2 bars calibrated. For each condition tested, three replicates (pots) of 6 wheat plants are used.
Fragments of the first leaf are cut and are transferred into a Petri dish containing adapted water agar (6 leaf fragments per Petri dish). Fragments are inoculated with a calibrated pycnospores suspension of Z. tritici strain Mg Tri-R6.
(§1) After inoculation, Petri dishes are incubated in a climatic chamber having a temperature of 20° C. day/17° C. night, photoperiod of 16 h light/8 h dark, and controlled relative humidity. Disease assessments are carried out 21 days post inoculation (dpi) and 28 dpi by measuring the length of the necrosis of the leaf fragment. The intensity of infection is then determined as a percent of the total length of the leaf fragment.
(§2) The efficacy is calculated based on the Area Under the Disease Progress Curve (AUDPC) which is a quantitative measure of disease intensity over time. The most commonly used method for estimating the AUDPC, the trapezoidal method, is performed for each time interval by multiplying the average disease intensity between each pair of adjacent time points by the corresponding time interval.
The fungicide efficacies are determined from the AUDPC values and expressed as a percent of the untreated control.
The compound of Formula I and mefentrifluconazole were applied with a hand sprayer at 2 bars calibrated to deliver the equivalent of 200 L/ha. Three replicates (pots) of 6 wheat plants each were used for each treatment group.
Fragments of the first leaf were cut and transferred into a Petri dish containing adapted water agar (6 leaf fragments per Petri dish). Fragments were inoculated with a calibrated pycnospores suspension of Z. tritici strain Mg Tri-R6.
as §1, with “dishes were” for “dishes are”, “assessments were” for “assessments are”, “infection was” for “infection is”, “as” for “as a”
as §2, with “efficacy was” for “efficacy is”, “method, was” for “method, is”
(§3) The fungicide efficacies were determined from the AUDPC values and expressed as a percent of the untreated control.
The compound of Formula I and fenpicoxamid were applied with a hand sprayer at 2 bars calibrated to deliver the equivalent of 200 L/ha. […]
After inoculation, Petri dishes were incubated in a climatic chamber having a temperature of 20° C. day/17° C. night, photoperiod of 16 h light/8 h dark and controlled relative humidity. […] The intensity of infection was then determined as percent of the total length of the leaf fragment. […]

[2] = tested on: Z. tritici strain Mg Tri-R6; assay: Efficacy on first-leaf fragments of treated wheat plantlets cv. Alixan inoculated with Z. tritici, AUDPC-based (Example 4, pydiflumetofen); assay type: in vivo, Zymoseptoria tritici; conditions: from AUDPC (21 and 28 dpi)
Method: Winter wheat plants cv. Alixan (Limagrain) at the BBCH 12 growth stage were treated with mixture of Compound of Formula I and pydiflumetofen at several rates with a hand sprayer at 2 bars calibrated to deliver the equivalent of 200 L/ha. The Compound of Formula I was applied at 5 g a.i./ha. Pydiflumetofen was applied at 0.00032-0.0016 and 0.008 g a.i./ha. Three replicates (pots) of 6 wheat plants each were used for each condition tested.
After treatment, wheat plants were left to dry at room temperature for 1 hour and then incubated in a climatic chamber having a temperature of 24° C. day/18° C. night, photoperiod of 16 h light/8 h dark and a relative humidity of 65%. Fragments of the first leaf were cut and transferred in Petri dish containing adapted water agar (6 leaf fragments per Petri dish). Fragments were inoculated with a calibrated pycnospores suspension of Z. tritici strain Mg Tri-R6.
After inoculation, Petri dishes were incubated in a climatic chamber having a temperature of 20° C. day/17° C. night, photoperiod of 16 h light/8 h dark and controlled relative humidity.
Disease assessments were carried out 21 days post inoculation (dpi) and 28 dpi by measuring the length of the necrosis of the leaf fragment. The intensity of infection was then determined in percent of the total length of the leaf fragment.
as §2, with “efficacy was” for “efficacy is”, “method, was” for “method, is”
as §3

[3] = fungicide (A) alone, rate 0.39 g a.i./ha

`Cc1ccc(S(=O)(=O)n2cc(F)c(=N)n(C)c2=O)cc1` [Compound of Formula I, 5-fluoro-4-imino-3-methyl-1-tosyl-3,4-dihydropyrimidin-2(1H)-one] was tested. Which “Observed Efficacy” value ([1]; compound of Formula I alone, rate 5 g a.i./ha) did it give?
Its value is 56.4%.

What about the “Observed Efficacy” value ([1]; compound of Formula I alone, rate 10 g a.i./ha) of the same compound?
The value was 69.1%.

And the “Observed Efficacy” value ([2]; compound of Formula I alone, rate 5 g a.i./ha, Example 4)?
The value was 63.2%.

`COc1ccnc(C(=O)N[C@H]2COC(=O)[C@H](Cc3ccccc3)[C@@H](OC(=O)C(C)C)[C@H](C)OC2=O)c1OCOC(=O)C(C)C` [Fenpicoxamid, (3S,6S,7R,8R)-8-benzyl-3-{3-[(isobutyryloxy)methoxy]-4-methoxypyridine-2-carboxamido}-6-methyl-4,9-dioxo-1,5-dioxonan-7-yl-isobutyrate] was tested. Which “Observed Efficacy” value [1, 3] did it give?
Its value is 56.0%.

For `CC1CC(C)(C)c2c(F)ccc(NC(=O)c3cn(C)nc3C(F)F)c21` (stereo not drawn) [Fluindapyr, 3-(Difluoromethyl)-N-(7-fluoro-2,3-dihydro-1,1,3-trimethyl-1H-inden-4-yl)-1-methyl-1H-pyrazole-4-carboxamide], which “Observed Efficacy” value [1, 3] is on record?
The value was 43.5%.

With `CC(O)(Cn1cncn1)c1ccc(Oc2ccc(Cl)cc2)cc1C(F)(F)F` (stereo not drawn) [Mefentrifluconazole, 2-[4-(4-chlorophenoxy)-2-(trifluoromethyl)phenyl]-1-(1,2,4-triazol-1-yl)propan-2-ol] as the compound, how does the “Observed Efficacy” value [1, 3] read?
Its value is 46.8%.

How did the “Observed Efficacy” value ([2]; pydiflumetofen alone, rate 0.00032 g a.i./ha) turn out when `CON(C(=O)c1cn(C)nc1C(F)F)[C@@H](C)Cc1c(Cl)cc(Cl)cc1Cl` [Pydiflumetofen, 3-(difluoromethyl)-N-methoxy-1-methyl-N-[(2S)-1-(2,4,6-trichlorophenyl)propan-2-yl]-1H-pyrazole-4-carboxamide] was run?
The value was 21.3%.

And the “Observed Efficacy” value ([2]; pydiflumetofen alone, rate 0.0016 g a.i./ha)?
The value was 35.6%.

What about the “Observed Efficacy” value ([2]; pydiflumetofen alone, rate 0.008 g a.i./ha) of the same compound?
The value was 44.0%.
